Measured values taken from PMC6563694 (Angewandte Chemie (International Ed. in English), 2019).

How the values were obtained:
[1] = biological target: mouse H3R (Mus musculus, UniProt P58406); assay: receptor binding
[2] = biological target: human histamine H3 receptor (hH3R) (Homo sapiens, UniProt Q9Y5N1); assay: [3H]-Nα-methylhistamine competition binding; settings: for pK i trans ± SEM: kept in dark, >99 % trans
[3] = biological target: rat H3R (Rattus norvegicus, UniProt Q9QYN8); assay: receptor binding
Chain of rat H3R (Q9QYN8 whole entry): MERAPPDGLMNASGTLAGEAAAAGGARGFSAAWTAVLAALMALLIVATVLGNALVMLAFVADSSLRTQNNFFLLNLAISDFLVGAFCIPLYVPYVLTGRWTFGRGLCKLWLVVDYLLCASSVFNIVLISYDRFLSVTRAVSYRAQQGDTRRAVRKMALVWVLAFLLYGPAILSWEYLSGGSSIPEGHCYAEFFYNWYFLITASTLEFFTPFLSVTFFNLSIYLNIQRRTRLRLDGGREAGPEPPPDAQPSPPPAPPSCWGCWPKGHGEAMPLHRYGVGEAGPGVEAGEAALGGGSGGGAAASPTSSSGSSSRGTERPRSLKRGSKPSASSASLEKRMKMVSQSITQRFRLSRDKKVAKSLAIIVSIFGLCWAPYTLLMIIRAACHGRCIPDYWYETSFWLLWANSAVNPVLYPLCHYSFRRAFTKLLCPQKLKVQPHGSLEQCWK

Chain of human histamine H3 receptor (hH3R) (Q9Y5N1 whole entry): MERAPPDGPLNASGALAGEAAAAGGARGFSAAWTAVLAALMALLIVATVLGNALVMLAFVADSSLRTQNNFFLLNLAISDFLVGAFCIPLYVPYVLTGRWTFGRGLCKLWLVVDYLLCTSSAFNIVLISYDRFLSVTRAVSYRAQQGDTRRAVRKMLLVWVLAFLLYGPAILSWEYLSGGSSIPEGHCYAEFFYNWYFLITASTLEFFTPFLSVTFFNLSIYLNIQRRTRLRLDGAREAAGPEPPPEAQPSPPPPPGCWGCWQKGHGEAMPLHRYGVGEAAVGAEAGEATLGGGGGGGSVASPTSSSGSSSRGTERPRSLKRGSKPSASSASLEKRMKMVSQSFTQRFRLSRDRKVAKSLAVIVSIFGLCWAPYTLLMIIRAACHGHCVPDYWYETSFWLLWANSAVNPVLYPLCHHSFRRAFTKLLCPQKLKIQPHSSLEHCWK
Chain of mouse H3R (P58406 whole entry): as the sequence (Q9QYN8 whole entry) above, with T15A, A286T, A290G, R387H, I389V counted along it

Compound | Ki [2] [nM] | also measured
c1ccc(/N=N\c2cccc(Cc3c[nH]cn3)c2)cc1 [compound 65, cis-65 (PSS cis)] | 32.4 | pKi ([1]; PSS cis): high nM (trans) to low μM (PSS cis) binding affinities for both mouse and rat; pKi ([3]; PSS cis): high nM (trans) to low μM (PSS cis) binding affinities for both mouse and rat
Clc1ccc(/N=N/c2cccc(Cc3c[nH]cn3)c2)cc1 [compound 71, 71 trans] | 174 | 
c1ccc(/N=N/c2cccc(Cc3c[nH]cn3)c2)cc1 [compound 65, trans-65] | 3.8 | pKi ([1]; trans): high nM (trans) to low μM (PSS cis) binding affinities for both mouse and rat; pKi ([3]; trans): high nM (trans) to low μM (PSS cis) binding affinities for both mouse and rat
Cc1c(Cc2c[nH]cn2)cccc1/N=N\c1ccccc1 [compound 72, 72 cis (PSS cis)] | 3550 | 
Clc1ccccc1/N=N\c1cccc(Cc2c[nH]cn2)c1 [compound 70, 70 cis (PSS cis)] | 141 | 
Cc1c(Cc2c[nH]cn2)cccc1/N=N/c1ccccc1 [compound 72, 72 trans] | 2690 | 
Cc1cc(Cc2c[nH]cn2)cc(/N=N\c2ccccc2)c1 [compound 74, 74 cis (PSS cis)] | 7410 | 
Fc1cccc(/N=N\c2cccc(Cc3c[nH]cn3)c2)c1 [compound 67, 67 cis (PSS cis)] | 38 | 
Fc1cccc(/N=N/c2cccc(Cc3c[nH]cn3)c2)c1 [compound 67, 67 trans] | 4.47 | 
Clc1ccccc1/N=N/c1cccc(Cc2c[nH]cn2)c1 [compound 70, 70 trans] | 13.8 | 
Fc1cccc(F)c1/N=N\c1cccc(Cc2c[nH]cn2)c1 [compound 69, 69 cis (PSS cis)] | 55 | 
Fc1ccccc1/N=N\c1cccc(Cc2c[nH]cn2)c1 [compound 66, 66 cis (PSS cis)] | 81.3 | 
Fc1ccccc1/N=N/c1cccc(Cc2c[nH]cn2)c1 [compound 66, 66 trans] | 5.25 | 
Cc1ccc(Cc2c[nH]cn2)cc1/N=N/c1ccccc1 [compound 75, 75 trans] |  | pK i trans ± SEM [2]: 7.15±0.03
Cc1ccc(/N=N/c2cccc(Cc3c[nH]cn3)c2)cc1 [compound 78, 78 trans] | 1910 | 
Fc1ccc(/N=N\c2cccc(Cc3c[nH]cn3)c2)cc1 [compound 68, 68 cis (PSS cis)] | 309 | 
Cc1ccccc1/N=N\c1cccc(Cc2c[nH]cn2)c1 [compound 76, 76 cis (PSS cis)] | 398 | 
Cc1cc(Cc2c[nH]cn2)cc(/N=N/c2ccccc2)c1 [compound 74, 74 trans] | 1780 | 
Cc1cccc(/N=N/c2cccc(Cc3c[nH]cn3)c2)c1 [compound 77, 77 trans] | 40.7 | 
Cc1ccc(/N=N\c2cccc(Cc3c[nH]cn3)c2)cc1 [compound 78, 78 cis (PSS cis)] | 1950 | 
Cc1ccccc1/N=N/c1cccc(Cc2c[nH]cn2)c1 [compound 76, 76 trans] | 19.1 | 
Fc1ccc(/N=N/c2cccc(Cc3c[nH]cn3)c2)cc1 [compound 68, 68 trans] | 20.4 | 
Fc1cccc(F)c1/N=N/c1cccc(Cc2c[nH]cn2)c1 [compound 69, 69 trans] | 10 | 
Fc1ccc(/N=N/c2ccccc2)cc1Cc1c[nH]cn1 [compound 79, 79 trans] |  | pK i trans ± SEM [2]: 7.81±0.07
Cc1ccc(/N=N/c2ccccc2)cc1Cc1c[nH]cn1 [compound 73, 73 trans] |  | pK i trans ± SEM [2]: 6.90±0.06
Fc1ccc(Cc2c[nH]cn2)cc1/N=N/c1ccccc1 [compound 80, 80 trans] |  | pK i trans ± SEM [2]: 8.39±0.06
Cc1cccc(/N=N\c2cccc(Cc3c[nH]cn3)c2)c1 [compound 77, 77 cis (PSS cis)] | 347 | 
Clc1ccc(/N=N\c2cccc(Cc3c[nH]cn3)c2)cc1 [compound 71, 71 cis (PSS cis)] | 1050 | 
